Assay results: ChEMBL document CHEMBL3124895, “Fragment-based discovery of potent inhibitors of the anti-apoptotic MCL-1 protein” (Bioorg Med Chem Lett, 2014)

Target: Induced myeloid leukemia cell differentiation protein Mcl-1 (Homo sapiens, UniProt Q07820)
Assay: Inhibition of human recombinant MCL-1 (174 to 236) expressed in Escherichia coli BL21(DE3) using 6FAM-GELEVEFATQLRRFGDKLN as substrate after 15 mins by fluorescence polarization Assay

Sequence of Induced myeloid leukemia cell differentiation protein Mcl-1 (Q07820 whole entry): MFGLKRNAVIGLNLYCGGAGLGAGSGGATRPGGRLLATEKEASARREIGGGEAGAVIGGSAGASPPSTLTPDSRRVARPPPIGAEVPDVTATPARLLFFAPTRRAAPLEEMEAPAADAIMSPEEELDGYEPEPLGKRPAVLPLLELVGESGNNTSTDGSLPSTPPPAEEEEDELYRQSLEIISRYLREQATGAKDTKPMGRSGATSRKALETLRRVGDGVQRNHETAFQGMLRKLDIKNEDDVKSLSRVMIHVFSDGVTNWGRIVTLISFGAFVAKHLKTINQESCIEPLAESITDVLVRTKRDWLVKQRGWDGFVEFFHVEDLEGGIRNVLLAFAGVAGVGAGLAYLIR

Row | SMILES | IC50
1 | O=C(O)c1cc(-c2ccccc2)ccc1O | 34 µM
2 | Nc1cccc(-c2ccc(O)c(C(=O)O)c2)c1 | 190 µM
3 | Cc1ccc(-c2ccc(O)c(C(=O)O)c2)cc1 | 73 µM
4 | O=C(O)c1cc(-c2ccc3ncccc3c2)ccc1O | 22 µM
5 | Cc1ccc(-c2ccc(O)c(C(=O)O)c2)cc1C | 6.2 µM
6 | CCCc1ccc(-c2ccc(O)c(C(=O)O)c2)cc1 | 3.3 µM
7 | O=C(O)c1cc(-c2ccc(OCc3ccccc3)cc2)ccc1O | 2.2 µM
8 | CCCCOc1ccc(F)c(-c2ccc(O)c(C(=O)O)c2)c1 | 1.1 µM
9 | CC(C)(C)OCc1ccccc1-c1ccc(O)c(C(=O)O)c1 | > 25 µM
10 | O=C(O)c1cc(-c2ccccc2OCc2ccccc2Cl)ccc1O | 0.78 µM
11 | O=C(O)c1cc(-c2ccccc2COc2cccc(C(F)(F)F)c2)ccc1O | 0.67 µM
12 | O=C1CC(c2cccc(C(F)(F)F)c2)=NN1 | 70 µM
13 | Oc1nc2c(ccc3ccccc32)o1 | 130 µM
14 | CN(C)c1cccc2ccc(O)cc12 | 280 µM

More lines, now with the values ahead:

Row | IC50 | SMILES
15 | 3.4 µM | C=Cc1ccc(C(=O)OCC)c(NS(=O)(=O)c2ccccc2)c1
16 | 0.5 µM | Cc1ccc(-c2ccc(C(=O)O)c(NS(=O)(=O)c3ccc(Oc4ccccc4)cc3)c2)c2ccccc12
17 | 0.3 µM | CCCCCc1ccc(S(=O)(=O)Nc2cc(-c3ccc(C)c4ccccc34)ccc2C(=O)O)cc1
18 | 0.2 µM | Cc1ccc(-c2ccc(C(=O)O)c(NS(=O)(=O)c3cccc(N4CCOCC4)c3)c2)c2ccccc12
19 | 0.15 µM | Cc1ccc(-c2ccc(C(=O)O)c(NS(=O)(=O)c3ccc(NC(=O)NCC(C)C)cc3)c2)c2ccccc12
20 | 0.11 µM | Cc1ccc(-c2ccc(C(=O)O)c(NS(=O)(=O)c3ccc(N4CCOCC4)cc3)c2)c2ccccc12
21 | 0.08 µM | Cc1ccc(-c2ccc(C(=O)O)c(NS(=O)(=O)c3ccc(C(=O)N(C)C)cc3)c2)c2ccccc12
22 | 0.06 µM | Cc1ccc(-c2ccc(C(=O)O)c(NS(=O)(=O)c3ccc(OCCCN4CCOCC4)cc3)c2)c2ccccc12
23 | 0.03 µM | Cc1ccc(-c2ccc(C(=O)O)c(NS(=O)(=O)c3ccc(OCCn4cccn4)cc3)c2)c2ccccc12
24 | 45 µM | CS(=O)(=O)Nc1ccccc1-c1ccc(O)c(C(=O)O)c1
25 | 31 µM | O=C(O)c1cc(-c2cccc3ccccc23)ccc1O
26 | 22 µM | Cc1ccccc1-c1ccc(O)c(C(=O)O)c1
27 | > 25 µM | Cc1ccc(S(=O)(=O)Nc2ccccc2-c2ccc(O)c(C(=O)O)c2)cc1
28 | 7.2 µM | O=C(O)c1cc(-c2ccccc2OCc2ccccc2)ccc1O
29 | 0.57 µM | O=C(O)c1cc(-c2ccccc2COc2cccc3ccccc23)ccc1O
30 | 37 µM | O=C(O)c1ccc(-c2cccc3ncccc23)cc1NS(=O)(=O)c1ccccc1
31 | 4.9 µM | Cc1ccc(-c2ccc(C(=O)O)c(NS(=O)(=O)c3ccccc3)c2)cc1
32 | 1.8 µM | Cc1cccc(-c2ccc(C(=O)O)c(NS(=O)(=O)c3ccccc3)c2)c1
33 | 1 µM | O=C(O)c1ccc(-c2cccc3ccccc23)cc1NS(=O)(=O)c1ccccc1
34 | 0.4 µM | Cc1ccc(-c2ccc(C(=O)O)c(NS(=O)(=O)c3ccccc3)c2)c2ccccc12
35 | 1.2 µM | CCC(C)c1ccc(S(=O)(=O)Nc2cc(-c3ccc(C)c4ccccc34)ccc2C(=O)O)cc1 (stereo not given)
